Tests used:
[1] = system: gastric secretion; assay: Gastric antisecretory properties: gastric secretion after Shay ligature, intraduodenal; type: in vivo; conditions: rat, read-out: Reduction of volume of gastric secretion; for inhibition in vivo at 1.5 mg/kg: 1.5 mg/kg/i.d.; for inhibition in vivo at 10 mg/kg: 10 mg/kg/i.d.; for inhibition in vivo at 1.6 mg/kg: 1.6 mg/kg/i.d.
Excerpt: Administered intraduodenally to a rat, the compounds of formula (I) are capable of reducing gastric secretion measured after Shay ligature.

[2] = system: stress ulcers; assay: Anti-ulcerous properties: ulcerations in rat under stress for 7 hours, oral; type: in vivo; conditions: for inhibition in vivo at 7.4 mg/kg: 7.4 mg/kg/p.o.; for inhibition in vivo at 20 mg/kg: 20 mg/kg/p.o.; for inhibition in vivo at 7.7 mg/kg: 7.7 mg/kg/p.o.
[3] = system: Shay's ulcer; assay: Anti-ulcerous properties: ulceration caused by ligature of the pylorus (Shay's ulcers), intraduodenal; type: in vivo; conditions: rat, read-out: Percentage reduction of Shay's ulcer; for inhibition in vivo at 14.8 mg/kg: 14.8 mg/kg/i.d.; for inhibition in vivo at 10 mg/kg: 10 mg/kg/i.d.; for inhibition in vivo at 15.5 mg/kg: 15.5 mg/kg/i.d.; for inhibition in vivo at 7.3 mg/kg: 7.3 mg/kg/i.d.
Excerpt: Furthermore, the compounds of formula (I) administered intraduodenally reduce the ulceration area caused by ligature of the pylorus of a rat (Shay's ulcers).

[4] = system: bronchoconstriction caused by acetylcholine; assay: Anticholinergic and antibronchoconstrictive: bronchoconstriction by intravenous acetylcholine, Konzett's method; type: in vivo; conditions: Cavia porcellus, guinea-pig, read-out: Percentage inhibition of the bronchoconstriction
Excerpt: Injected intravenously or intraduodenally, the compounds of formula (I) are capable of opposing bronchoconstriction caused in a guinea-pig by intravenous injection of acetylcholine and evaluated by Konzett's method.

[5] = system: painful stretchings; assay: Analgesic: painful stretchings following intraperitoneal injection of acetic acid; type: in vivo; conditions: po, mouse, read-out: Percentage diminution painful stretchings; for inhibition in vivo at 40 mg/kg: 40 mg/kg/p.o.; for inhibition in vivo at 50 mg/kg: 50 mg/kg/p.o.
Excerpt: The compounds of formula (I), administered orally to a mouse, are capable of reducing the number of painful stretchings following intraperitioneal injection of acetic acid.

[6] = system: sub-plantar oedema; assay: Anti-inflammatory: sub-plantar oedema caused by carragenine; type: in vivo; conditions: po, rat, read-out: Percentage reduction of sub-plantar oedema; for inhibition in vivo at 50 mg/kg: 50 mg/kg/p.o.
[7] = Acute toxicity, lethal dose 50; conditions: mouse, in vivo, po, read-out: Lethal dose 50 (mouse) / DL 50 (mouse) (converted)
[8] = system: jejunal ansa of a rabbit; assay: Spasmolytic in vivo: contractions of the jejunal ansa caused by electric stimulation
Excerpt: The compounds of formula (I), administered intraduodenally are capable of reducing the contractions of the jejunal ansa of a rabbit, caused by electric stimulation.

[9] = system: arterial pressure; assay: Anti-hypertensive: arterial pressure in genetically hyperstressed vigil rats (S.H.R.); type: in vivo, rat; conditions: 150 mg/kg/p.o., 4 hours
Description: The compounds of formula (I) are capable, 4 hours after their oral injection, of bringing the arterial pressure down to normal in genetically hyperstressed vigil rats (S.H.R.).

[10] = po, read-out: Percentage reduction of stress ulcers

Compound: CCCCNC(=O)CN1CCN(Cc2nc3ccccc3n2CCC(=O)c2ccccc2)CC1 [74 0186]
- inhibition in vivo at 1.5 mg/kg ([1]; intraduodenal): 67%
- inhibition in vivo at 7.4 mg/kg [2, 10]: 98%
- inhibition in vivo at 14.8 mg/kg [3]: 75%
- inhibition in vivo at 2 mg/kg ([4]; iv, i.v., 2 mg/kg): 100%
- inhibition in vivo at 40 mg/kg [5]: 77%
- inhibition in vivo at 40 mg/kg ([6]; 40 mg/kg/p.o.): 48%
- LD50 [7]: 360 mg/kg

Compound: CCN(CC)C(=O)CN1CCN(Cc2nc3ccccc3n2CCC(=O)c2ccccc2)CC1 [74 0184]
- inhibition in vivo at 1.5 mg/kg ([1]; intraduodenal): 77%
- inhibition in vivo at 7.4 mg/kg [2, 10]: 100%
- inhibition in vivo at 7.4 mg/kg ([3]; 7.4 mg/kg/i.d.): 100%
- Diminution of contractions of the jejunum for more than an hour ([8]; 14.9 mg/kg/i.d.): 39%
- inhibition in vivo at 4 mg/kg ([4]; iv, i.v.): 100%
- inhibition in vivo at 50 mg/kg [5]: 63%
- inhibition in vivo at 50 mg/kg [6]: 65%
- LD50 [7]: 1300 mg/kg

Compound: C[N+]1(C)CCC(=C(c2ccccc2)c2ccccc2)CC1 [Diphemanil, diphemanil (methylsulfate), reference compound]
- inhibition in vivo at 50 mg/kg ([1]; intraduodenal, 50 mg/kg/i.d.): 52%
- inhibition in vivo at 100 mg/kg ([2]; po, 100 mg/kg/p.o., ratio equal to 315, read-out: Percentage reduction of stress ulcers): 91%
- Diminution of contractions of the jejunum of a rabbit ([8]; 20 mg/kg/i.d.): 70%
- LD50 [7]: 317 mg/kg

Compound: CC(C)NC(=O)CN1CCN(Cc2nc3ccccc3n2CCC(=O)c2ccc(Cl)cc2)CC1 [75 0012]
- inhibition in vivo at 10 mg/kg ([1]; intraduodenal): 63%
- inhibition in vivo at 20 mg/kg [2, 10]: 64%
- inhibition in vivo at 10 mg/kg [3]: 73%
- LD50 [7]: 1300 mg/kg

Compound: CNC(=O)CN1CCN(Cc2nc3ccccc3n2CCC(=O)c2ccccc2)CC1 [74 0145]
- inhibition in vivo at 1.6 mg/kg ([1]; intraduodenal): 88%
- inhibition in vivo at 7.7 mg/kg [2, 10]: 100%
- inhibition in vivo at 15.5 mg/kg [3]: 100%
- inhibition in vivo at 0.5 mg/kg ([4]; iv, i.v., 0.5 mg/kg): 75%
- inhibition in vivo at 10 mg/kg ([5]; 10 mg/kg/p.o.): 70%
- inhibition in vivo at 10 mg/kg ([6]; 10 mg/kg/p.o.): 40%
- LD50 [7]: 180 mg/kg

Compound: O=C(CCn1c(CN2CCN(CC(=O)N3CCCC3)CC2)nc2ccccc21)c1ccccc1 [73 0458, 1-(2'-benzoyleth-1' yl) 2-(4"-pyrrolidinocarbonylmethylpiperazine-1" ylmethyl) benzimidazole]
- inhibition in vivo at 2 mg/kg ([1]; Rat2, intraduodenal, 2 mg/kg/i.d.): 19%
- inhibition in vivo at 5 mg/kg ([2]; po, 5 mg/kg/p.o., read-out: Percentage reduction of stress ulcers): 77%
- inhibition in vivo at 10 mg/kg [3]: 90%
- inhibition in vivo at 100 mg/kg ([4]; intraduodenal, i.d., 100 mg/kg): 67%

Compound: NC(=O)CN1CCN(Cc2nc3ccccc3n2CCC(=O)c2ccccc2)CC1 [75 0102]
- inhibition in vivo at 10 mg/kg ([1]; intraduodenal): 91%
- inhibition in vivo at 10 mg/kg ([2]; po, 10 mg/kg/p.o., read-out: Percentage reduction of stress ulcers): 100%
- inhibition in vivo at 10 mg/kg [3]: 74%
- Diminution of contractions of the jejunum for more than an hour ([8]; 25 mg/kg/i.d.): 80%
- LD50 [7]: 1300 mg/kg

Compound: CC(C)NC(=O)CN1CCN(Cc2nc3ccccc3n2CCC(=O)c2ccc([N+](=O)[O-])cc2)CC1 [74 0747]
- arterial pressure brought down to normal [9]: 4 animals out of 7
- LD50 [7]: 2200 mg/kg

Compound: CCCN(CCC)C(=O)CN1CCN(Cc2nc3ccccc3n2CCC(=O)c2ccccc2)CC1 [74 0196]
- inhibition in vivo at 1.5 mg/kg ([1]; intraduodenal): 74%
- inhibition in vivo at 7.3 mg/kg ([2]; po, 7.3 mg/kg/p.o., read-out: Percentage reduction of stress ulcers): 88%
- inhibition in vivo at 7.3 mg/kg [3]: 90%
- LD50 [7]: 2100 mg/kg

Compound: Cc1ccc(C(=O)CCn2c(CN3CCN(CC(=O)NC(C)C)CC3)nc3ccccc32)cc1 [75 0009]
- inhibition in vivo at 10 mg/kg ([1]; intraduodenal): 62%
- inhibition in vivo at 20 mg/kg [2, 10]: 90%
- inhibition in vivo at 20 mg/kg ([3]; 20 mg/kg/i.d.): 56%
- LD50 [7]: 1800 mg/kg

Compound: CCCNC(=O)CN1CCN(Cc2nc3ccccc3n2CCC(=O)c2ccccc2)CC1 [74 0159]
- inhibition in vivo at 1.5 mg/kg ([1]; intraduodenal): 77%
- inhibition in vivo at 7.5 mg/kg ([2]; po, 7.5 mg/kg/p.o., read-out: Percentage reduction of stress ulcers): 100%
- inhibition in vivo at 7.6 mg/kg ([2]; po, 7.6 mg/kg/p.o., read-out: Percentage reduction of stress ulcers): 100%
- inhibition in vivo at 15.1 mg/kg ([3]; 15.1 mg/kg/i.d.): 100%
- inhibition in vivo at 5 mg/kg ([4]; iv, i.v.): 100%
- inhibition in vivo at 50 mg/kg [5]: 40%
- inhibition in vivo at 50 mg/kg [6]: 57%
- LD50 [7]: 1250 mg/kg

Compound: CC(C)N(C(=O)CN1CCN(Cc2nc3ccccc3n2CCC(=O)c2ccccc2)CC1)C(C)C [74 0453]
- inhibition in vivo at 7.3 mg/kg [3]: 82%
- inhibition in vivo at 2.5 mg/kg ([4]; iv, i.v., 2.5 mg/kg): 100%
- LD50 [7]: 1000 mg/kg

Compound: O=C(CCn1c(CN2CCN(CC(=O)N3CCOCC3)CC2)nc2ccccc21)c1ccccc1 [74 0160]
- inhibition in vivo at 1.5 mg/kg ([1]; intraduodenal): 45%
- inhibition in vivo at 6 mg/kg ([2]; po, 6 mg/kg/p.o., read-out: Percentage reduction of stress ulcers): 76%
- inhibition in vivo at 15 mg/kg ([3]; 15 mg/kg/i.d.): 99%
- inhibition in vivo at 50 mg/kg [6]: 50%
- LD50 [7]: 1700 mg/kg

Compound: O=C(CN1CCN(Cc2nc3ccccc3n2CCC(=O)c2ccccc2)CC1)NC1CCCC1 [74 0751]
- inhibition in vivo at 4.5 mg/kg ([1]; intraduodenal, 4.5 mg/kg/i.d.): 69%
- ED50 ([2]; oral, read-out: DE 50, stress ulcers): 11 mg/kg
- inhibition in vivo at 10 mg/kg [3]: 89%
- LD50 [7]: 1100 mg/kg

Compound: O=C(CCn1c(CN2CCN(CC(=O)N3CCCCCC3)CC2)nc2ccccc21)c1ccccc1 [74 0195]
- inhibition in vivo at 7.1 mg/kg ([2]; po, 7.1 mg/kg/p.o., read-out: Percentage reduction of stress ulcers): 59%
- inhibition in vivo at 14.2 mg/kg ([3]; 14.2 mg/kg/i.d.): 86%
- Diminution of contractions of the jejunum of a rabbit ([8]; 14.2 mg/kg/i.d.): 30%
- inhibition in vivo at 25 mg/kg ([4]; intraduodenal, i.d., 25 mg/kg): 60%
- inhibition in vivo at 50 mg/kg [5]: 53%
- LD50 [7]: > 2000 mg/kg

Compound: CC(C)CNC(=O)CN1CCN(Cc2nc3ccccc3n2CCC(=O)c2ccccc2)CC1 [74 0187]
- inhibition in vivo at 1.5 mg/kg ([1]; intraduodenal): 78%
- inhibition in vivo at 7.4 mg/kg [2, 10]: 100%
- inhibition in vivo at 14.8 mg/kg [3]: 94%
- inhibition in vivo at 5 mg/kg ([4]; iv, i.v.): 100%
- inhibition in vivo at 50 mg/kg [5]: 42%
- inhibition in vivo at 50 mg/kg [6]: 47%
- LD50 [7]: 1600 mg/kg

Compound: CN(C)C(=O)CN1CCN(Cc2nc3ccccc3n2CCC(=O)c2ccccc2)CC1 [74 0180]
- inhibition in vivo at 1.5 mg/kg ([1]; intraduodenal): 86%
- inhibition in vivo at 7.7 mg/kg [2, 10]: 100%
- inhibition in vivo at 7.7 mg/kg ([3]; 7.7 mg/kg/i.d.): 94%
- Diminution of contractions of the jejunum for more than an hour ([8]; 15.4 mg/kg/i.d.): 50%
- inhibition in vivo at 5 mg/kg ([4]; iv, i.v.): 100%
- inhibition in vivo at 50 mg/kg [5]: 53%
- inhibition in vivo at 50 mg/kg [6]: 47%
- LD50 [7]: 716 mg/kg

Compound: COc1cccc(C(=O)CCn2c(CN3CCN(CC(=O)NC(C)C)CC3)nc3ccccc32)c1 [75 0010]
- inhibition in vivo at 25 mg/kg ([1]; intraduodenal, 25 mg/kg/i.d.): 82%
- inhibition in vivo at 20 mg/kg [2, 10]: 77%
- inhibition in vivo at 40 mg/kg ([3]; 40 mg/kg/i.d.): 86%
- LD50 [7]: 1200 mg/kg

Compound: CCNC(=O)CN1CCN(Cc2nc3ccccc3n2CCC(=O)c2ccccc2)CC1 [74 0144]
- inhibition in vivo at 1.6 mg/kg ([1]; intraduodenal): 85%
- inhibition in vivo at 7.7 mg/kg [2, 10]: 99%
- inhibition in vivo at 15.5 mg/kg [3]: 98%
- Diminution of contractions of the jejunum for more than an hour ([8]; 15.5 mg/kg/i.d.): 43%
- inhibition in vivo at 4 mg/kg ([4]; iv, i.v.): 100%
- inhibition in vivo at 40 mg/kg [5]: 92%
- inhibition in vivo at 30 mg/kg ([6]; 30 mg/kg/p.o.): 35%
- LD50 [7]: 310 mg/kg

Reference: patent publication US4104384A, “1-(2'-Aroyl eth-1'yl) 2-(4"-acetamido piperazine-1"yl methyl) benzimidazoles and their therapeutical applications” (priority 1975, dated 1978)
